Laboratory results published in ChEMBL document CHEMBL4000149, “The effect of glycine replacement with flexible ω-amino acids on the antimicrobial and haemolytic activity of an amphipathic cyclic heptapeptide” (Eur J Med Chem, 2015).
≈ marks a conversion by molar mass, not a printed value. Square brackets hold non-standard residues; d marks the D form. Peptide text beside a SMILES is read from it. ξ: configuration not given here. 2Nal = N[C@@H](Cc1ccc2ccccc2c1)C(=O)O; ξNle = CCCCC(N)C(=O)O; Aoc = NCCCCCCCC(=O)O

How the values were obtained:
Escherichia coli = experiment: Antimicrobial activity against Escherichia coli ATCC 25922 by tube dilution method; type: functional
Staphylococcus aureus = experiment: Antimicrobial activity against methicillin-resistant Staphylococcus aureus ATCC 33591 by tube dilution method; type: functional
Acinetobacter baumannii = experiment: Antimicrobial activity against multidrug-resistant Acinetobacter baumannii ATCC BAA-1605 by tube dilution method; type: functional
Candida albicans = experiment: Antifungal activity against Candida albicans ATCC 200955 by tube dilution method; type: functional
Pseudomonas aeruginosa = experiment: Antimicrobial activity against Pseudomonas aeruginosa ATCC 27853 by tube dilution method; type: functional
[1] = Toxicity in human erythrocytes assessed as hemolysis at 150 uM after 1 hr; type: cell-based, Erythrocyte; conditions: read-out: Activity
Klebsiella pneumoniae = experiment: Antimicrobial activity against multidrug-resistant Klebsiella pneumoniae ATCC 700603 by tube dilution method; type: functional
[2] = Toxicity in human erythrocytes assessed as hemolysis after 1 hr; type: cell-based, Erythrocyte
Enterococcus faecium = experiment: Antimicrobial activity against vancomycin-resistant Enterococcus faecium ATCC 700221 by tube dilution method; type: functional

| Compound | MIC (Escherichia coli) | MIC (Staphylococcus aureus) | MIC (Acinetobacter baumannii) | MIC (Candida albicans) | MIC (Pseudomonas aeruginosa) | hemolysis at 1 h, 150 µM [1] | MIC (Klebsiella pneumoniae) | EC50 at 1 hr [2] | MIC (Enterococcus faecium) |
| --- | --- | --- | --- | --- | --- | --- | --- | --- | --- |
| CC(C)C[C@@H]1NC(=O)CNC(=O)[C@H](Cc2ccc3ccccc3c2)NC(=O)[C@H](CCCNC(=N)N)NC(=O)[C@H](CC(C)C)NC(=O)[C@H](Cc2ccc3ccccc3c2)NC(=O)[C@H](CCCCN)NC1=O (cyclo([2Nal]GLK[2Nal]LR)) | 128 µM (≈ 123 µg/mL) | 32 µM (≈ 30.8 µg/mL) | > 128 µM | 32 µM (≈ 30.8 µg/mL) | 128 µM (≈ 123 µg/mL) | 14% | > 128 µM | > 150 µM | 16 µM (≈ 15.4 µg/mL) |
| CC(C)C[C@@H]1NC(=O)CNC(=O)[C@H](Cc2ccc3ccccc3c2)NC(=O)[C@H](CCCNC(=N)N)NC(=O)[C@H]([C@@H](C)O)NC(=O)[C@H](Cc2ccc3ccccc3c2)NC(=O)[C@H](CCCNC(=N)N)NC1=O (cyclo([2Nal]GLR[2Nal]TR)) | 128 µM (≈ 125 µg/mL) | 128 µM (≈ 125 µg/mL) | > 128 µM | 128 µM (≈ 125 µg/mL) | > 128 µM | < 8% | > 128 µM | > 150 µM | 128 µM (≈ 125 µg/mL) |
| CC(C)C[C@@H]1NC(=O)CNC(=O)[C@@H](Cc2ccc3ccccc3c2)NC(=O)[C@H](CCCNC(=N)N)NC(=O)[C@H](CC(C)C)NC(=O)[C@H](Cc2ccc3ccccc3c2)NC(=O)[C@H](CCCNC(=N)N)NC1=O | 128 µM (≈ 127 µg/mL) | 32 µM (≈ 31.7 µg/mL) | 128 µM (≈ 127 µg/mL) | 64 µM (≈ 63.4 µg/mL) | > 128 µM | < 8% | > 128 µM | > 150 µM | 16 µM (≈ 15.8 µg/mL) |
| CC(C)C[C@@H]1NC(=O)CCCCCCCNC(=O)[C@H](Cc2ccc3ccccc3c2)NC(=O)[C@H](CCCNC(=N)N)NC(=O)[C@H](CC(C)C)NC(=O)[C@H](Cc2ccc3ccccc3c2)NC(=O)[C@H](CCCNC(=N)N)NC1=O (cyclo([2Nal][Aoc]LR[2Nal]LR)) | 16 µM (≈ 17.2 µg/mL) | 2 µM (≈ 2.15 µg/mL) | 8 µM (≈ 8.6 µg/mL) | 4 µM (≈ 4.3 µg/mL) | 32 µM (≈ 34.4 µg/mL) | 100% | 16 µM (≈ 17.2 µg/mL) | 22 µM | 2 µM (≈ 2.15 µg/mL) |
| CC(C)C[C@@H]1NC(=O)[C@H](Cc2ccc3ccccc3c2)NC(=O)[C@H](CCCNC(=N)N)NC(=O)[C@H](CCC(N)=O)NC(=O)CNC(=O)[C@H](Cc2ccc3ccccc3c2)NC(=O)[C@H](CCCNC(=N)N)NC1=O (cyclo([2Nal]GQR[2Nal]LR)) | > 128 µM | 128 µM (≈ 129 µg/mL) | > 128 µM | 128 µM (≈ 129 µg/mL) | > 128 µM | < 8% | > 128 µM | > 150 µM | 16 µM (≈ 16.1 µg/mL) |
| CC(C)C[C@@H]1NC(=O)[C@H](Cc2ccc3ccccc3c2)NC(=O)[C@H](CCCNC(=N)N)NC(=O)[C@@H]2CCCN2C(=O)CNC(=O)[C@H](Cc2ccc3ccccc3c2)NC(=O)[C@H](CCCNC(=N)N)NC1=O (cyclo([2Nal]GPR[2Nal]LR)) | > 128 µM | 64 µM (≈ 62.3 µg/mL) | > 128 µM | 64 µM (≈ 62.3 µg/mL) | 128 µM (≈ 125 µg/mL) | < 8% | > 128 µM | > 150 µM | 16 µM (≈ 15.6 µg/mL) |
| CCCCCC[C@H]1NC(=O)[C@H](Cc2ccc3ccccc3c2)NC(=O)[C@H](CCCNC(=N)N)NC(=O)[C@H](CC(C)C)NC(=O)CNC(=O)[C@H](Cc2ccc3ccccc3c2)NC(=O)[C@H](CCCNC(=N)N)NC1=O | 32 µM (≈ 32.6 µg/mL) | 8 µM (≈ 8.15 µg/mL) | 32 µM (≈ 32.6 µg/mL) | 16 µM (≈ 16.3 µg/mL) | 64 µM (≈ 65.2 µg/mL) | 100% | 64 µM (≈ 65.2 µg/mL) | 55 µM | 8 µM (≈ 8.15 µg/mL) |
| CCCCC1NC(=O)[C@H](Cc2ccc3ccccc3c2)NC(=O)[C@H](CCCNC(=N)N)NC(=O)[C@H](CC(C)C)NC(=O)CNC(=O)[C@H](Cc2ccc3ccccc3c2)NC(=O)[C@H](CCCNC(=N)N)NC1=O (stereo not given in full) (cyclo([2Nal]GLR[2Nal][ξNle]R)) | > 128 µM | 32 µM (≈ 31.7 µg/mL) | > 128 µM | > 128 µM | > 128 µM | 35% | > 128 µM | > 150 µM | 16 µM (≈ 15.8 µg/mL) |
| CCCCCCC1NC(=O)[C@H](Cc2ccc3ccccc3c2)NC(=O)[C@H](CCCNC(=N)N)NC(=O)[C@H](CC(C)C)NC(=O)CNC(=O)[C@H](Cc2ccc3ccccc3c2)NC(=O)[C@H](CCCNC(=N)N)NC1=O (stereo not given in full) | 16 µM (≈ 16.3 µg/mL) | 4 µM (≈ 4.07 µg/mL) | 16 µM (≈ 16.3 µg/mL) | 4 µM (≈ 4.07 µg/mL) | 32 µM (≈ 32.6 µg/mL) | 100% | 16 µM (≈ 16.3 µg/mL) | 33 µM | 2 µM (≈ 2.04 µg/mL) |
| CC(C)C[C@@H]1NC(=O)CNC(=O)[C@H](Cc2c[nH]c3ccccc23)NC(=O)[C@H](CCCCN)NC(=O)[C@H](CC(C)C)NC(=O)[C@H](Cc2c[nH]c3ccccc23)NC(=O)[C@H](CCCCN)NC1=O (cyclo(GLKWLKW)) | 128 µM (≈ 117 µg/mL) | > 128 µM | 128 µM (≈ 117 µg/mL) | > 128 µM | > 128 µM | < 8% | > 128 µM | > 150 µM | 128 µM (≈ 117 µg/mL) |
